Legend:
CDK2/CycE = molecular target: T1, CDK2/CycE (Homo sapiens, UniProt P24941); test: CDK2/CycE kinase assay (TR-FRET); format: biochemical; conditions: avg, read-out: CDK2 avg (IC50 [mol/l])
T1 construct: GST; purchased ProQinase GmbH (Freiburg, Germany); host or cells: insect cells (Sf9)
Summary of the method: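 GST-tagged human CDK2 and CycE from Sf9 cells, preincubated 15 min with compound, then 25 min at 22° C. with 10 μM ATP and 0.75 μM biotinylated Rb-derived peptide (final). Phospho-substrate read by TR-FRET (anti-pRB pSer807/pSer811, Eu anti-mouse IgG, streptavidin-XL665), 665/620 nm ratio, normalised to no-inhibitor and no-enzyme controls.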

[1] = molecular target: T2, catalytic domain of human Bub1 (amino acids 704-1085) (Homo sapiens, UniProt O43683); test: Bub1 kinase assay (TR-FRET); format: biochemical; conditions: 10 μM ATP, avg, read-out: Bub1 avg (IC50 [mol/l])
T2 construct: catalytic domain of human Bub1 (amino acids 704-1085); His6 (N); made in house; host or cells: insect cells (Hi5)
T2 sequence (O43683 704-1085): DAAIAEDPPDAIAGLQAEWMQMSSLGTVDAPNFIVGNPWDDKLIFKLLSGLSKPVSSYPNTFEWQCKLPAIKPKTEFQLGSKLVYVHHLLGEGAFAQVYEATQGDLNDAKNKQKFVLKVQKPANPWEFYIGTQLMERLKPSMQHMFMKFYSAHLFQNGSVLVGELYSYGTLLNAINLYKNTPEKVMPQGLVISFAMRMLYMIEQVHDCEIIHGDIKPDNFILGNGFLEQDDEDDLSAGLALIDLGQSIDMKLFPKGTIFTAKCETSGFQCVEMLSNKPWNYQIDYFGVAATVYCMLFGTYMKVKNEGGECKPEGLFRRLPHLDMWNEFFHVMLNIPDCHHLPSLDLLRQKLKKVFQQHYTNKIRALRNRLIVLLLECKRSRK
Summary of the method: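 Readout is the 665/620 nm TR-FRET ratio from anti-phosphoserine antibody, Eu-labelled anti-mouse IgG and streptavidin-XL665, scaled between no-enzyme and uninhibited controls. Reaction: 1 μM biotinylated peptide, 10 μM ATP, 60 min, 22 °C, after 15 min compound preincubation with His6-Bub1 (704-1085, insect-expressed, ~200 ng/ml).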

IC50 (CDK2/CycE) [µM] | IC50 [1] [µM] | Structure (SMILES)
≥ 20 | ≥ 20 | Cc1nsc(Nc2cncc(C(F)(F)F)n2)c1C(=O)Nc1ccc(OC2CCNCC2)nc1 [Example 13, 3-Methyl-N-[6-(piperidin-4-yloxy)pyridin-3-yl]-5-{[6-(trifluoromethyl)pyrazin-2-yl]-amino}-1,2-thiazole-4-carboxamide]
13 | ≥ 20 | Cc1nsc(Nc2cncc(C(F)(F)F)n2)c1C(=O)Nc1ccc(OC2CCN(CCF)CC2)nc1 [Example 14, N-(6-{[1-(2-Fluoroethyl)piperidin-4-yl]oxy}pyridin-3-yl)-3-methyl-5-{[6-(trifluoro-methyl)pyrazin-2-yl]amino}-1,2-thiazole-4-carboxamide]
≥ 20 | ≥ 20 | Cc1nsc(Nc2cncc(C(F)(F)F)n2)c1C(=O)Nc1ccc(OC2CCN(CC(F)(F)F)CC2)nc1 [Example 16, 3-Methyl-N-(6-{[1-(2,2,2-trifluoroethyl)piperidin-4-yl]oxy}pyridin-3-yl)-5-{[6-(trifluoromethyl)pyrazin-2-yl]amino}-1,2-thiazole-4-carboxamide]
≥ 20 | ≥ 20 | CC(=O)N1CCC(Oc2ccc(NC(=O)c3c(C)nsc3Nc3cncc(C(F)(F)F)n3)cn2)CC1 [Example 17, N-{6-[(1-Acetylpiperidin-4-yl)oxy]pyridin-3-yl}-3-methyl-5-{[6-(trifluoromethyl)-pyrazin-2-yl]amino}-1,2-thiazole-4-carboxamide]
≥ 20 | ≥ 20 | Cc1nsc(Nc2cnc3ccccc3n2)c1C(=O)Nc1ccc(OC2CCN(C(=O)OC(C)(C)C)CC2)nc1 [Example 18, tert-Butyl 4-{[5-({[3-methyl-5-(quinoxalin-2-ylamino)-1,2-thiazol-4-yl]carbonyl}-amino)pyridin-2-yl]oxy}piperidine-1-carboxylate]
≥ 20 | ≥ 20 | Cc1nsc(Nc2cnc3ccccc3n2)c1C(=O)Nc1ccc(OC2CCNCC2)nc1 [Example 19, 3-Methyl-N-[6-(piperidin-4-yloxy)pyridin-3-yl]-5-(quinoxalin-2-ylamino)-1,2-thiazole-4-carboxamide]
≥ 20 | ≥ 20 | Cc1nsc(Nc2cnc3ccccc3n2)c1C(=O)Nc1ccc(OC2CCN(CC(F)F)CC2)nc1 [Example 20, N-(6-{[1-(2,2-difluoroethyl)piperidin-4-yl]oxy}pyridin-3-yl)-3-methyl-5-(quinoxalin-2-ylamino)-1,2-thiazole-4-carboxamide]
> 20 | > 20 | CCN(CC)CCNC(=O)c1cccc(NC(=O)c2c(C)nsc2Nc2cc(C#N)ccn2)c1 [Example 174, 5-[(4-cyanopyridin-2-yl)amino]-N-(3-{[2-(diethylamino)ethyl]carbamoyl}phenyl)-3-methyl-1,2-thiazole-4-carboxamide]
> 20 | – | Cc1nsc(Nc2cc(C#N)ccn2)c1C(=O)Nc1cccc(C(=O)NC2CC2)c1 [Example 175, 5-[(4-cyanopyridin-2-yl)amino]-N-[3-(cyclopropylcarbamoyl)phenyl]-3-methyl-1,2-thiazole-4-carboxamide]
> 20 | > 20 | COC(=O)CCc1cccc(NC(=O)c2c(C)nsc2Nc2ccc(C#N)cn2)c1 [Example 176, methyl 3-{3-[({5-[(5-cyanopyridin-2-yl)amino]-3-methyl-1,2-thiazol-4-yl}carbonyl)amino]phenyl}propanoate]
> 20 | – | Cc1nsc(Nc2cnc(C(F)(F)F)cn2)c1C(=O)Nc1cccc(S(C)(=O)=O)c1 [Example 195, 3-methyl-N-[3-(methylsulfonyl)phenyl]-5-{[5-(trifluoromethyl)pyrazin-2-yl]amino}-1,2-thiazole-4-carboxamide]
– | > 20 | Cc1nsc(Nc2cncc(C(F)(F)F)n2)c1C(=O)Nc1ccc(C(=O)NCCN2CCCC(F)(F)C2)cc1 [Example 214, N-(4-{[2-(3,3-difluoropiperidin-1-yl)ethyl]carbamoyl}phenyl)-3-methyl-5-{[6-(trifluoromethyl)pyrazin-2-yl]amino}-1,2-thiazole-4-carboxamide]

Source: patent US20170334899A1, “AMINO-SUBSTITUTED ISOTHIAZOLES” (Bayer Pharma Aktiengesellschaft, priority 2014, published 2017)
